Measurements as given in patent US20150328250A1, “Animal Food Composition and Method” (HILL'S PET NUTRITION, INC., priority 2012, published 2015).

Key:
[1] = Amount of zinc bound to chitosan after 1 hour of dialysis; type: physicochemical
Description: (§1) The chitosan-controlled release of zinc was investigated. 0.1% solutions of chitosan were prepared. Zinc acetate was added to each of these solutions to provide a zinc ion concentration of 100 ppm or 200 ppm. The pH of the solutions was adjusted to 2, 5 or 7. Each solution was left at room temperature for 72 hours while gently mixing to allow for complete chitosan dissolution. Solutions containing zinc alone acted as controls for the experiment.
(§2) Each solution was subsequently transferred to dialysis tubing and placed in a jar containing deionized water. Stirring was carried out continuously throughout the duration of dialysis. Evaporative loss was minimized by placing a sealing wrap over the jar. A sample of the dialysate was removed at regular intervals and the zinc ion concentration was measured by inductively coupled plasma optical emission spectrometry (ICP-OES).
The amount of zinc bound to chitosan after 1 hour of dialysis at pH 2, 5 and 7 was also determined After 1 hour of dialysis, the amount of zinc that had been released through the dialysis tubing, in the presence and absence of chitosan, was measured as described above. The amount of zinc released in the presence of chitosan was subtracted from the amount of zinc released in the absence of chitosan to determine the amount of zinc bound to chitosan.

[2] = Chitosan-controlled release of zinc through dialysis tubing, dialysate zinc measured by ICP-OES; type: physicochemical
Description: as §1, §2

In the case of `CC(=O)[O-].CC(=O)[O-].[Zn+2]` [Zinc, Zinc acetate], the “Zn++ released through the dialysis tubing” value ([1]; 100 ppm pH 2, after 1 hour of dialysis) was 0.57 mg, the “Zn++ released through the dialysis tubing” value ([1]; 100 ppm pH 5, after 1 hour of dialysis) was 1.62 mg and the “Zn++ released through the dialysis tubing” value ([1]; 100 ppm pH 7, after 1 hour of dialysis) was 0.87 mg. The “Zn++ released through the dialysis tubing” value ([1]; 200 ppm pH 2, after 1 hour of dialysis) was 1.68 mg, the “Zn++ released through the dialysis tubing” value ([1]; 200 ppm pH 5, after 1 hour of dialysis) was 2.54 mg and the “Zn++ released through the dialysis tubing” value ([1]; 200 ppm pH 7, after 1 hour of dialysis) was 1.68 mg. The “average rate of zinc release per hour” value ([2]; 100 ppm Zn acetate, pH 2) was 0.54 mg/h, the “average rate of zinc release per hour” value ([2]; 100 ppm Zn acetate, pH 5) was 1.38 mg/h and the “average rate of zinc release per hour” value ([2]; 100 ppm Zn acetate, pH 7) was 0.85 mg/h. The “Amount of Zn++ released” value ([2]; 100 ppm zinc ion, pH 2, 0.00 hrs) was 0 mg, the “Amount of Zn++ released” value ([2]; 100 ppm zinc ion, pH 2, 0.33 hrs) was 0.25 ± 0.00 mg and the “Amount of Zn++ released” value ([2]; 100 ppm zinc ion, pH 2, 0.67 hrs) was 0.42 ± 0.01 mg. The “Amount of Zn++ released” value ([2]; 100 ppm zinc ion, pH 2, 1.00 hrs) was 0.52 ± 0.01 mg, the “Amount of Zn++ released” value ([2]; 100 ppm zinc ion, pH 2, 1.33 hrs) was 0.75 ± 0.01 mg and the “Amount of Zn++ released” value ([2]; 100 ppm zinc ion, pH 2, 1.67 hrs) was 0.90 ± 0.02 mg. The “Amount of Zn++ released” value ([2]; 100 ppm zinc ion, pH 2, 2.00 hrs) was 1.01 ± 0.02 mg, the “Amount of Zn++ released” value ([2]; 100 ppm zinc ion, pH 2, 2.50 hrs) was 1.40 ± 0.01 mg and the “Amount of Zn++ released” value ([2]; 100 ppm zinc ion, pH 2, 3.00 hrs) was 1.66 ± 0.02 mg. For the same molecule, the “Amount of Zn++ released” value ([2]; 100 ppm zinc ion, pH 5, 0.00 hrs) was 0 mg, the “Amount of Zn++ released” value ([2]; 100 ppm zinc ion, pH 5, 0.33 hrs) was 0.57 ± 0.01 mg and the “Amount of Zn++ released” value ([2]; 100 ppm zinc ion, pH 5, 0.67 hrs) was 1.15 ± 0.02 mg. For the same molecule, the “Amount of Zn++ released” value ([2]; 100 ppm zinc ion, pH 5, 1.00 hrs) was 1.68 ± 0.02 mg, the “Amount of Zn++ released” value ([2]; 100 ppm zinc ion, pH 5, 1.33 hrs) was 2.36 ± 0.07 mg and the “Amount of Zn++ released” value ([2]; 100 ppm zinc ion, pH 5, 1.67 hrs) was 2.86 ± 0.07 mg. The “Amount of Zn++ released” value ([2]; 100 ppm zinc ion, pH 5, 2.00 hrs) was 3.14 ± 0.01 mg, the “Amount of Zn++ released” value ([2]; 100 ppm zinc ion, pH 5, 2.50 hrs) was 3.69 ± 0.05 mg and the “Amount of Zn++ released” value ([2]; 100 ppm zinc ion, pH 5, 3.00 hrs) was 4.00 ± 0.00 mg. The “Amount of Zn++ released” value ([2]; 100 ppm zinc ion, pH 7, 0.00 hrs) was 0 mg, the “Amount of Zn++ released” value ([2]; 100 ppm zinc ion, pH 7, 0.33 hrs) was 0.30 ± 0.00 mg and the “Amount of Zn++ released” value ([2]; 100 ppm zinc ion, pH 7, 0.67 hrs) was 0.71 ± 0.15 mg. For the same molecule, the “Amount of Zn++ released” value ([2]; 100 ppm zinc ion, pH 7, 1.00 hrs) was 0.82 ± 0.00 mg, the “Amount of Zn++ released” value ([2]; 100 ppm zinc ion, pH 7, 1.33 hrs) was 1.11 ± 0.00 mg and the “Amount of Zn++ released” value ([2]; 100 ppm zinc ion, pH 7, 1.67 hrs) was 1.40 ± 0.01 mg. The “Amount of Zn++ released” value ([2]; 100 ppm zinc ion, pH 7, 2.00 hrs) was 1.78 ± 0.25 mg, the “average rate of zinc release per hour” value ([2]; 200 ppm Zn acetate, pH 2) was 1.58 mg/h and the “average rate of zinc release per hour” value ([2]; 200 ppm Zn acetate, pH 5) was 2.07 mg/h. The “average rate of zinc release per hour” value ([2]; 200 ppm Zn acetate, pH 7) was 1.47 mg/h, the “Amount of Zn++ released” value ([2]; 200 ppm zinc ion, pH 2, 0.00 hrs) was 0 mg and the “Amount of Zn++ released” value ([2]; 200 ppm zinc ion, pH 2, 0.33 hrs) was 0.52 ± 0.00 mg. For the same molecule, the “Amount of Zn++ released” value ([2]; 200 ppm zinc ion, pH 2, 0.67 hrs) was 1.07 ± 0.00 mg, the “Amount of Zn++ released” value ([2]; 200 ppm zinc ion, pH 2, 1.00 hrs) was 1.77 ± 0.07 mg and the “Amount of Zn++ released” value ([2]; 200 ppm zinc ion, pH 2, 1.33 hrs) was 2.36 ± 0.01 mg. For the same molecule, the “Amount of Zn++ released” value ([2]; 200 ppm zinc ion, pH 2, 1.67 hrs) was 2.90 ± 0.01 mg, the “Amount of Zn++ released” value ([2]; 200 ppm zinc ion, pH 2, 2.00 hrs) was 3.40 ± 0.05 mg and the “Amount of Zn++ released” value ([2]; 200 ppm zinc ion, pH 2, 2.50 hrs) was 4.09 ± 0.01 mg. For the same molecule, the “Amount of Zn++ released” value ([2]; 200 ppm zinc ion, pH 2, 3.00 hrs) was 4.59 ± 0.00 mg, the “Amount of Zn++ released” value ([2]; 200 ppm zinc ion, pH 5, 0.00 hrs) was 0 mg and the “Amount of Zn++ released” value ([2]; 200 ppm zinc ion, pH 5, 0.33 hrs) was 0.99 ± 0.00 mg. The “Amount of Zn++ released” value ([2]; 200 ppm zinc ion, pH 5, 0.67 hrs) was 1.91 ± 0.02 mg, the “Amount of Zn++ released” value ([2]; 200 ppm zinc ion, pH 5, 1.00 hrs) was 2.73 ± 0.00 mg and the “Amount of Zn++ released” value ([2]; 200 ppm zinc ion, pH 5, 1.33 hrs) was 3.61 ± 0.00 mg. For the same molecule, the “Amount of Zn++ released” value ([2]; 200 ppm zinc ion, pH 5, 1.67 hrs) was 4.25 ± 0.01 mg, the “Amount of Zn++ released” value ([2]; 200 ppm zinc ion, pH 5, 2.00 hrs) was 4.85 ± 0.02 mg and the “Amount of Zn++ released” value ([2]; 200 ppm zinc ion, pH 5, 2.50 hrs) was 5.59 ± 0.01 mg. The “Amount of Zn++ released” value ([2]; 200 ppm zinc ion, pH 5, 3.00 hrs) was 6.13 ± 0.03 mg, the “Amount of Zn++ released” value ([2]; 200 ppm zinc ion, pH 7, 0.00 hrs) was 0 mg and the “Amount of Zn++ released” value ([2]; 200 ppm zinc ion, pH 7, 0.33 hrs) was 0.630 ± 0.00 mg. For the same molecule, the “Amount of Zn++ released” value ([2]; 200 ppm zinc ion, pH 7, 0.67 hrs) was 1.21 ± 0.01 mg, the “Amount of Zn++ released” value ([2]; 200 ppm zinc ion, pH 7, 1.00 hrs) was 1.76 ± 0.01 mg and the “Amount of Zn++ released” value ([2]; 200 ppm zinc ion, pH 7, 1.33 hrs) was 2.36 ± 0.02 mg. For the same molecule, the “Amount of Zn++ released” value ([2]; 200 ppm zinc ion, pH 7, 1.67 hrs) was 2.88 ± 0.02 mg and the “Amount of Zn++ released” value ([2]; 200 ppm zinc ion, pH 7, 2.00 hrs) was 3.25 ± 0.04 mg.
